# From PubChem BioAssay AID328 (DTP/NCI, 2004)
# Where “and” joins values, the source holds several entries; their conditions need not be identical. Equal entries are not always repeated. Inconclusive results and toxic doses are left out.
# Tested on: BDF1 mice, P388 leukemia ip, median survival T/C
# Test: NCI In Vivo Anticancer Drug Screen. Data for tumor model P388 Leukemia (intraperitoneal) in B6D2F1 (BDF1) mice
# Details: endpoint: median survival time, higher = longer survival
# Procedure, shortened: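 Transplantable tumour in mice; compound vs vehicle dosing; survival scored; ratio of treated to control reported.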
# [1] = dose: 50.0 mg/kg/injection, schedule: Q04DX003 (ip), vehicle: saline with Tween-80
# [2] = dose: 100.0 mg/kg/injection, schedule: Q01DX009 (ip), vehicle: saline with Tween-80
# [3] = dose: 200.0 mg/kg/injection, schedule: Q01DX009 (ip), vehicle: saline with Tween-80
# [4] = dose: 50.0 mg/kg/injection, schedule: Q01DX009 (ip), vehicle: saline with Tween-80
# [5] = dose: 100.0 mg/kg/injection, schedule: Q04DX003 (ip), vehicle: saline with Tween-80
# [6] = dose: 25.0 mg/kg/injection, schedule: Q01DX009 (ip), vehicle: saline
# [7] = dose: 50.0 mg/kg/injection, schedule: Q01DX009 (ip), vehicle: saline
# [8] = dose: 200.0 mg/kg/injection, schedule: Q04DX003 (ip), vehicle: Klucel (hydroxypropylcellulose) (HPC)
# [9] = dose: 400.0 mg/kg/injection, schedule: Q04DX003 (ip), vehicle: Klucel (hydroxypropylcellulose) (HPC)
smiles,measurement,setting,value
COc1ccc2c(Nc3ccc(NS(C)(=O)=O)cc3)c3ccccc3nc2c1,T/C,"dose: 0.66 mg/kg/injection, schedule: Q01DX009 (ip), vehicle: saline with Tween-80",169 % of control
same,T/C,"dose: 1.0 mg/kg/injection, schedule: Q01DX009 (ip), vehicle: saline with Tween-80",194 % of control
same,T/C,"dose: 1.5 mg/kg/injection, schedule: Q01DX009 (ip), vehicle: saline with Tween-80",201 % of control
same,T/C,"dose: 2.66 mg/kg/injection, schedule: Q04DX003 (ip), vehicle: saline with Tween-80",150 % of control
same,T/C,"dose: 4.0 mg/kg/injection, schedule: Q04DX003 (ip), vehicle: saline with Tween-80",163 % of control
same,T/C,"dose: 6.0 mg/kg/injection, schedule: Q04DX003 (ip), vehicle: saline with Tween-80",172 % of control
same,T/C,"dose: 9.0 mg/kg/injection, schedule: Q04DX003 (ip), vehicle: saline with Tween-80",168 % of control
same,T/C,"dose: 22.0 mg/kg/injection, schedule: Q04DX003 (ip), vehicle: saline with Tween-80",200 % of control
same,T/C,"dose: 25.0 mg/kg/injection, schedule: Q04DX003 (ip), vehicle: saline",254 % of control
same,T/C,"dose: 33.0 mg/kg/injection, schedule: Q04DX003 (ip), vehicle: saline with Tween-80",227 % of control
same,T/C,[1],231 % of control
same,T/C,"dose: 50.0 mg/kg/injection, schedule: Q04DX003 (ip), vehicle: saline",240 % of control
same,T/C,"dose: 75.0 mg/kg/injection, schedule: Q04DX003 (ip), vehicle: saline with Tween-80",281 % of control
same,T/C,"dose: 100.0 mg/kg/injection, schedule: Q04DX003 (ip), vehicle: saline",104 % of control
c1ccc(P(CCP(CCP(c2ccccc2)c2ccccc2)c2ccccc2)CCP(c2ccccc2)c2ccccc2)cc1 (configuration not stated),T/C,[2],90 % of control and 100 % of control
same,T/C,[3],110 % of control and 100 % of control
same,T/C,"dose: 400.0 mg/kg/injection, schedule: Q01DX009 (ip), vehicle: saline with Tween-80",100 % of control and 120 % of control
CCOC(=O)C1CSCC1=O (configuration not stated),T/C,"dose: 12.5 mg/kg/injection, schedule: Q01DX009 (ip), vehicle: water",113 % of control
same,T/C,"dose: 25.0 mg/kg/injection, schedule: Q01DX009 (ip), vehicle: water",113 % of control
same,T/C,"dose: 50.0 mg/kg/injection, schedule: Q01DX009 (ip), vehicle: water",98 % of control
same,T/C,"dose: 100.0 mg/kg/injection, schedule: Q01DX009 (ip), vehicle: water",104 % of control
same,T/C,"dose: 200.0 mg/kg/injection, schedule: Q01DX009 (ip), vehicle: water",95 % of control
same,T/C,"dose: 200.0 mg/kg/injection, schedule: Q04DX003 (ip), vehicle: water",101 % of control
same,T/C,"dose: 300.0 mg/kg/injection, schedule: Q04DX003 (ip), vehicle: water",117 % of control
same,T/C,"dose: 400.0 mg/kg/injection, schedule: Q01DX009 (ip), vehicle: water",101 % of control
same,T/C,"dose: 400.0 mg/kg/injection, schedule: Q04DX003 (ip), vehicle: water",106 % of control
O=C1CN(c2ccccc2)CC(=O)N2C(c3ccccc3)CCCN12 (configuration not stated),T/C,"dose: 50.0 mg/kg/injection, schedule: Q01DX005 (ip), vehicle: saline with Tween-80",113 % of control
same,T/C,"dose: 100.0 mg/kg/injection, schedule: Q01DX005 (ip), vehicle: saline with Tween-80",97 % of control
same,T/C,"dose: 200.0 mg/kg/injection, schedule: Q01DX005 (ip), vehicle: saline with Tween-80",97 % of control
O=Cc1cc(O)ccc1[N+](=O)[O-],T/C,[4],95 % of control
same,T/C,[2],104 % of control
same,T/C,[5],104 % of control
same,T/C,[3],100 % of control
same,T/C,"dose: 200.0 mg/kg/injection, schedule: Q04DX003 (ip), vehicle: saline with Tween-80",90 % of control
CC1(C)CC(C)(OC(=O)c2ccccc2)[N+]([O-])=N1 (configuration not stated),T/C,"dose: 25.0 mg/kg/injection, schedule: Q01DX005 (ip), vehicle: other",108 % of control
same,T/C,"dose: 50.0 mg/kg/injection, schedule: Q01DX005 (ip), vehicle: other",117 % of control
same,T/C,"dose: 100.0 mg/kg/injection, schedule: Q01DX005 (ip), vehicle: other",99 % of control
same,T/C,"dose: 200.0 mg/kg/injection, schedule: Q01DX005 (ip), vehicle: other",101 % of control
same,T/C,"dose: 400.0 mg/kg/injection, schedule: Q01DX005 (ip), vehicle: other",108 % of control
CCCCCCCCCCCC(=O)CCCC,T/C,"dose: 100.0 mg/kg/injection, schedule: Q01DX009 (ip), vehicle: other",110 % of control
same,T/C,"dose: 200.0 mg/kg/injection, schedule: Q01DX009 (ip), vehicle: other",90 % of control
CC(C)=NNC(=O)c1ccccc1,T/C,[6],104 % of control
same,T/C,"dose: 25.0 mg/kg/injection, schedule: Q04DX003 (ip), vehicle: saline with Tween-80",95 % of control
same,T/C,[7],109 % of control
same,T/C,[1],95 % of control
same,T/C,[5],100 % of control and 113 % of control
COc1ccc(-n2c(=O)c(N=Nc3ccccc3OC)c(O)n(-c3ccccc3C)c2=S)cc1,T/C,"dose: 100.0 mg/kg/injection, schedule: Q01DX001 (ip), vehicle: Klucel (hydroxypropylcellulose) (HPC)",111 % of control
same,T/C,"dose: 200.0 mg/kg/injection, schedule: Q01DX001 (ip), vehicle: Klucel (hydroxypropylcellulose) (HPC)",100 % of control
same,T/C,"dose: 400.0 mg/kg/injection, schedule: Q01DX001 (ip), vehicle: Klucel (hydroxypropylcellulose) (HPC)",88 % of control
Nc1c(Br)cc2c(c1Br)Cc1cc(Cl)ccc1-2,T/C,"dose: 6.0 mg/kg/injection, schedule: Q04DX003 (ip), vehicle: Klucel (hydroxypropylcellulose) (HPC)",100 % of control
same,T/C,"dose: 12.0 mg/kg/injection, schedule: Q04DX003 (ip), vehicle: Klucel (hydroxypropylcellulose) (HPC)",100 % of control
same,T/C,"dose: 25.0 mg/kg/injection, schedule: Q01DX009 (ip), vehicle: Klucel (hydroxypropylcellulose) (HPC)",100 % of control
same,T/C,"dose: 25.0 mg/kg/injection, schedule: Q04DX003 (ip), vehicle: Klucel (hydroxypropylcellulose) (HPC)",100 % of control
same,T/C,"dose: 50.0 mg/kg/injection, schedule: Q01DX009 (ip), vehicle: Klucel (hydroxypropylcellulose) (HPC)",87 % of control and 90 % of control and 100 % of control
same,T/C,"dose: 50.0 mg/kg/injection, schedule: Q04DX003 (ip), vehicle: Klucel (hydroxypropylcellulose) (HPC)",90 % of control
same,T/C,[8],118 % of control
same,T/C,[9],95 % of control and 104 % of control
CCCCC(CC)COP(=O)(CC(CC)CCCC)OCC(CC)CCCC (configuration not stated),T/C,"dose: 25.0 mg/kg/injection, schedule: Q01DX009 (ip), vehicle: saline with Tween-80",100 % of control
O=[N+]([O-])/C=C/c1ccc([N+](=O)[O-])cc1,T/C,[1],118 % of control
same,T/C,[5],118 % of control
COC(=O)/C=C/CCOS(C)(=O)=O,T/C,"dose: 100.0 mg/kg/injection, schedule: Q04DX002 (ip), vehicle: saline with Tween-80",104 % of control
same,T/C,"dose: 200.0 mg/kg/injection, schedule: Q04DX002 (ip), vehicle: saline with Tween-80",124 % of control
same,T/C,"dose: 400.0 mg/kg/injection, schedule: Q04DX002 (ip), vehicle: saline with Tween-80",107 % of control
O=C(NNc1ccc(F)cc1)C12CC3CC(CC(C3)C1)C2,T/C,[4],104 % of control
CC1(C)N=C(N)N=C(N)N1c1ccc(OCCNC(=O)Nc2ccc(S(=O)(=O)F)cc2)c(Cl)c1,T/C,"dose: 4.8 mg/kg/injection, schedule: Q01DX009 (ip), vehicle: saline",118 % of control
same,T/C,[6],175 % of control
same,T/C,[7],180 % of control
same,T/C,"dose: 66.0 mg/kg/injection, schedule: Q01DX009 (ip), vehicle: saline",168 % of control
same,T/C,"dose: 66.0 mg/kg/injection, schedule: Q04DX003 (ip), vehicle: saline",123 % of control
same,T/C,"dose: 100.0 mg/kg/injection, schedule: Q01DX009 (ip), vehicle: saline",159 % of control and 200 % of control
Cc1nc(N)sc1CCCl,T/C,"dose: 10.0 mg/kg/injection, schedule: Q01DX009 (ip), vehicle: saline",104 % of control
same,T/C,"dose: 20.0 mg/kg/injection, schedule: Q01DX009 (ip), vehicle: saline",104 % of control
same,T/C,"dose: 40.0 mg/kg/injection, schedule: Q01DX009 (ip), vehicle: saline",100 % of control
same,T/C,"dose: 80.0 mg/kg/injection, schedule: Q01DX009 (ip), vehicle: saline",113 % of control
CCCCCCCCCCCCCC[N+]1([O-])CCCC1,T/C,"dose: 12.5 mg/kg/injection, schedule: Q01DX009 (ip), vehicle: saline",108 % of control
same,T/C,[6],100 % of control
same,T/C,[7],95 % of control
CC(=O)CSc1ncnc2nc[nH]c12,T/C,[2],109 % of control
same,T/C,[3],109 % of control
O/N=C(\c1ccccc1)C(c1ccccc1)C(Cl)(Cl)Cl (configuration not stated),T/C,"dose: 100.0 mg/kg/injection, schedule: Q04DX003 (ip), vehicle: Klucel (hydroxypropylcellulose) (HPC)",100 % of control
same,T/C,[8],100 % of control
same,T/C,[9],100 % of control
